Experimental data published in PMC10190849, “Rationally designed modular drug delivery platform based on intracellular peptide self‐assembly” (Exploration, 2021).
No end group written: not given here. *: point of attachment. FITC = O=C1OC2(c3ccc(O)cc3Oc3cc(O)ccc32)c2ccc(NC(=S)*)cc21

Assays:
[1] = TEM imaging of assembled morphology and diameters; format: physicochemical; settings: result in words
Source text: To further confirm our speculation, we observe the assembled morphology of these molecules under its CAC concentrations. […] As those results indicated, the modification position of fluorescence molecules largely influenced the dispersity of designed molecules. […] As a threshold, the %SASA value around 75% distinguishes between assembly and soluble states. Thus, the optimal choice for modification position is decisive in %SASA regulation for successful molecular design.
In order to achieve a highly ordered superstructure in vivo, it is necessary to transfer the precursor with higher CAC content to the monomer with lower CAC content at the desired position under the trigger of some chemical reactions. In this work, the pre‐designed molecules trigger the conversion of precursors to monomers transformation through enzyme‐directed hydrolysis, and the substrate (DEVD) was cleaved by caspase 3/7. Due to the increased hydrophobicity and conformational changes, the resultant product further self‐assembled into the required superstructure. The previous study in this work confirmed five molecules with higher dispersity (Pβ‐R4C, Pα‐R4C, Pβ‐R4F, Pβ‐R4P, Pβ‐R4C‐D). Here, we studied the self‐assembly properties of […] related residues of these highly soluble molecules (R‐R4C, R‐R4F, R‐R4P, R‐R4C‐D).^[ [21] ^] […]

[2] = ThT (Thioflavin T) assay, critical aggregation/assembly concentration and dispersibility; format: physicochemical; settings: dose dependent assembling profile after incubation with ThT, Figure 3A
Description: For intracellular self-assembly, the rapid transformation from dispersed state to aggregate state in desired site is required. In other words, the molecules need to be stable monomeric states at other locations and present self-assembled states at the required locations. Therefore, location-specific self-assembly characteristics are the decisive factors for the success of molecular design. […] Then, different modification on four domains were carried out to evaluate its dispersity and self-assembly properties. We carried out ThT (Thioflavin T) analytic assay to evaluate whether those predesigned molecules presented relatively dispersed state. ThT is a sensitive probe to the lamellar β-sheet structure. When exposed to the lamellar β-sheet structure, ThT fluorescence was enhanced due to inserting into the lamellar structure.^[ [17] ^] […] In order to validate our hypophysis and quantitively determine the solubility of those molecules, we calculated the critical assembly concentration (CAC) of those molecules based on the ThT analysis. […] However, other molecules with R4 domain modifications all presented a higher CAC with ≥400 μM. […] ThT assay: the ThT assay was utilized to calculate the critical assembling concentration. […] Next, the fluorescence of ThT was measured with the excitation wavelength with 450 nm. Finally, the fluorescence intensity was recorded and normalized.

[3] = test system: XIAP negative cell line L929; test: CLSM imaging of cells coincubated with MDS molecules, XIAP negative cell line; format: cell-based; settings: 50 μM, 37 °C, 1 h, PBS washing
Description: (§1) Drug delivery efficacy is one of the decisive factors for evaluating the drug delivery systems.
(§2) Cell culturing and CLSM imaging: H460, 786-O, L929 cell lines and EJ, RT112 cell lines were cultured in PRMI-1640 and DMEM respectively with 10% (v: v) fetal bovine serum, 1% penicillin–streptomycin in an incubator (Thermo Scientific) at 37 °C with 5% CO2 and 95% relative humidity. For observing the selectivity of MDS by CLSM imaging, all the cell lines were seeded with 1 x 10^5 cells per well, and cultured for 24 h, the cells were incubated with 50 μM Pβ-R4C and Pβ-R4F respectively at 37 °C for 1 h and followed by PBS washing. Subsequently, the cells were stained with Hoechst 33342 (1 mg ml^-1) at 37 °C for 10 min. Finally, the cells were washed by PBS twice and immediately observed under confocal laser scanning microscopy. For observing the selective drug accumulation by CLSM imaging, the H460 cell and L929 cells were seeded with 1 x 10^5 cells per well, and cultured for 24 h, then cells were incubated with 50 μM Pβ-R4C-D for 1 h, followed by PBS washing and observed by CLSM.

[4] = test system: XIAP positive cell lines (H460, 786-O, EJ, RT112); test: CLSM imaging of cells coincubated with MDS molecules, XIAP positive cell lines; format: cell-based; settings: 50 μM, 37 °C, 1 h, PBS washing
Source text: as §1
In order to evaluate the drug delivery efficacy, we directly observed the Py fluorescence by CLSM imaging. […] In addition, we performed the cell section analysis and directly observed the morphology of assemblies intracellularly (Figure 8D). The intracellular formed nanofibers confirmed the controllable in situ assembly of MDS. All those results verified that the drug delivery system was feasible for highly efficient drug delivery.
as §2, with “For observing the selective drug accumulation by CLSM imaging, the H460 cell and L929 cells were seeded with 1 x 10^5 cells per well, and cultured for 24 h, then cells were incubated with 50 μM Pβ-R4C-D for 1 h, followed by PBS washing and observed by CLSM.” left out

Row | Substance | assembled morphology (TEM) [1] | molecular concentration at which ThT fluorescence obviously increased [2] | fluorescent signal in cells (CLSM) [3] | fluorescent signal in cells (CLSM) [4]
1 | AVPIAQKDEVDGC(Cy)KLVFFAEG [Pβ-R2C, Pβ with GC on R2 domain conjugated with Cy] | nanofibrous structures | 200 µM |  | 
2 | AVPIAQKDEVDKLVFFAEC(Cy)G [Pβ-R4C, Pβ with fluorescent molecule Cy linked in R4 domain] |  |  | No obvious fluorescent signal | strong Cy and FITC fluorescent signal
3 | AVPIAQKDEVDKLVFFAEC(FITC)G [Pβ-R4F, Pβ with FITC in R4 domain] |  |  | No obvious fluorescent signal | strong Cy and FITC fluorescent signal
